The source of these data is ChEMBL document CHEMBL5390280, “Design, Synthesis, and Biological Evaluation of an Orally Bioavailable, Potent, and Selective ROCK2 Inhibitor for Psoriasis Treatment” (J Med Chem, 2023).

Series [1] concerns Mus musculus. Kind of series: Anti-inflammatory activity in Balb/c mouse model of IMQ-induced skin inflammation assessed as decrease in serum IL-17A level at 40 to 80 mg/kg, po administered daily for 7 days by IHC analysis. In kind it is functional, organism-based. The settings on record: dose 40-80 mg/kg, time 7.0 day.
The test system of series [2] is Mus musculus. Kind of series: In vivo inhibition of ROCK2 in Balb/c mouse model of IMQ-induced skin inflammation assessed as decrease in pSTAT3+ cells in dorsal skin at 20 to 80 mg/kg, po administered daily for 7 days by high power field microscopy. In kind it is functional, organism-based. As to conditions: dose 20-80 mg/kg, time 7.0 day.
Series [3] deals with Mus musculus. Kind of series: Anti-inflammatory activity in Balb/c mouse model of IMQ-induced skin inflammation assessed as reduction in skin erythema at 20 to 80 mg/kg, po administered daily for 7 days. In kind it is functional, organism-based. The settings on record: dose 20-80 mg/kg, time 7.0 day.
The test system of series [4] is Mus musculus. Kind of series: Anti-inflammatory activity in Balb/c mouse model of IMQ-induced skin inflammation assessed as reduction in skin scales at 20 to 80 mg/kg, po administered daily for 7 days. In kind it is functional, organism-based. As to conditions: dose 20-80 mg/kg, time 7.0 day.
Series [5] can be described thus: Half life in Balb/c mouse at 10 mg/kg, iv measured for 0.08 to 24 hrs by LC-MS/MS analysis. In kind it is ADME, organism-based. As to conditions: in vivo, time 0.08-24 hrs.
Series [6] relates to Mus musculus. Kind of series: In vivo inhibition of ROCK2 in Balb/c mouse model of IMQ-induced skin inflammation assessed as decrease in pSTAT5+ cells in dorsal skin at 20 to 80 mg/kg, po administered daily for 7 days by high power field microscopy. As to conditions: dose 20-80 mg/kg, time 7.0 day. In kind it is functional, organism-based.
Series [7] is described as follows: Oral bioavailability in Balb/c mouse at 40 mg/kg measured for 0.08 to 24 hrs by LC-MS/MS analysis. In kind it is ADME, organism-based. As to conditions: in vivo, time 0.08-24 hrs.
Series [8] is described as follows: Volume of distribution at steady state in Balb/c mouse at 10 mg/kg, iv measured for 0.08 to 24 hrs by LC-MS/MS analysis. In kind it is ADME, organism-based. As to conditions: in vivo, time 0.08-24 hrs, read-out: Vdss.
The nature of series [9]: AUC (0 to t) in Balb/c mouse at 10 mg/kg, iv measured for 0.08 to 24 hrs by LC-MS/MS analysis. Further details: time upper 24 hrs, time lower 0.08 hrs, dose 10 mg/kg, route iv. As to conditions: in vivo. In kind it is ADME, organism-based.
Series [10] deals with Mus musculus. Kind of series: Anti-inflammatory activity in Balb/c mouse model of IMQ-induced skin inflammation assessed as decrease in IL-17A mRNA level in dorsal skin at 80 mg/kg, po administered daily for 7 days by RT-qPCR analysis. In kind it is functional, organism-based. As to conditions: time 7.0 day. (In general: Real-time PCR tracks product formation cycle by cycle.)

Series [11] concerns HaCaT. Put plainly: Anti-psoriasis effect in KGF-stimulated human HaCaT cells assessed as decrease in pSTAT3 level at 2 to 5 uM incubated for 24 hrs by Western blot analysis. In kind it is functional, cell-based. As to conditions: dose 2-5 µM. (A western blot detects proteins with antibodies after separation by electrophoresis.)
Series [12] has as its system Mus musculus. Put plainly: Anti-inflammatory activity in Balb/c mouse model of IMQ-induced skin inflammation assessed as decrease in Ki67+ cells in epidermis of dorsal skin at 80 mg/kg, po administered daily for 7 days by IHC analysis. In kind it is functional, organism-based. The settings on record: time 7.0 day.
Series [13] relates to HaCaT. Put plainly: Inhibition of KGF-induced hyperproliferation of human HaCaT cells by plate clone formation assay. In kind it is functional, cell-based.
Series [14] deals with Rho-associated protein kinase 1 (Homo sapiens, UniProt Q13464). Put plainly: Inhibition of ROCK1 (unknown origin) by HTRF assay. For orientation: Time-resolved FRET reads energy transfer from a long-lived donor to a nearby acceptor.

Broadly, the half-life is how long it takes for the measured level to halve. The bioavailability is dose-corrected exposure relative to a reference, in per cent. A low value points to little systemic uptake. In general, AUC(0-t) refers to the area under the concentration-time curve up to a stated or last time point. Higher therefore signals more exposure. Usually IC50 stands for the concentration that inhibits the measured activity by half. Read a low IC50 as inhibition by little substance.

Activity calls are given as the source filed them. No cut-off for these calls is given here.

Sequence of Rho-associated protein kinase 1 (Q13464 whole entry): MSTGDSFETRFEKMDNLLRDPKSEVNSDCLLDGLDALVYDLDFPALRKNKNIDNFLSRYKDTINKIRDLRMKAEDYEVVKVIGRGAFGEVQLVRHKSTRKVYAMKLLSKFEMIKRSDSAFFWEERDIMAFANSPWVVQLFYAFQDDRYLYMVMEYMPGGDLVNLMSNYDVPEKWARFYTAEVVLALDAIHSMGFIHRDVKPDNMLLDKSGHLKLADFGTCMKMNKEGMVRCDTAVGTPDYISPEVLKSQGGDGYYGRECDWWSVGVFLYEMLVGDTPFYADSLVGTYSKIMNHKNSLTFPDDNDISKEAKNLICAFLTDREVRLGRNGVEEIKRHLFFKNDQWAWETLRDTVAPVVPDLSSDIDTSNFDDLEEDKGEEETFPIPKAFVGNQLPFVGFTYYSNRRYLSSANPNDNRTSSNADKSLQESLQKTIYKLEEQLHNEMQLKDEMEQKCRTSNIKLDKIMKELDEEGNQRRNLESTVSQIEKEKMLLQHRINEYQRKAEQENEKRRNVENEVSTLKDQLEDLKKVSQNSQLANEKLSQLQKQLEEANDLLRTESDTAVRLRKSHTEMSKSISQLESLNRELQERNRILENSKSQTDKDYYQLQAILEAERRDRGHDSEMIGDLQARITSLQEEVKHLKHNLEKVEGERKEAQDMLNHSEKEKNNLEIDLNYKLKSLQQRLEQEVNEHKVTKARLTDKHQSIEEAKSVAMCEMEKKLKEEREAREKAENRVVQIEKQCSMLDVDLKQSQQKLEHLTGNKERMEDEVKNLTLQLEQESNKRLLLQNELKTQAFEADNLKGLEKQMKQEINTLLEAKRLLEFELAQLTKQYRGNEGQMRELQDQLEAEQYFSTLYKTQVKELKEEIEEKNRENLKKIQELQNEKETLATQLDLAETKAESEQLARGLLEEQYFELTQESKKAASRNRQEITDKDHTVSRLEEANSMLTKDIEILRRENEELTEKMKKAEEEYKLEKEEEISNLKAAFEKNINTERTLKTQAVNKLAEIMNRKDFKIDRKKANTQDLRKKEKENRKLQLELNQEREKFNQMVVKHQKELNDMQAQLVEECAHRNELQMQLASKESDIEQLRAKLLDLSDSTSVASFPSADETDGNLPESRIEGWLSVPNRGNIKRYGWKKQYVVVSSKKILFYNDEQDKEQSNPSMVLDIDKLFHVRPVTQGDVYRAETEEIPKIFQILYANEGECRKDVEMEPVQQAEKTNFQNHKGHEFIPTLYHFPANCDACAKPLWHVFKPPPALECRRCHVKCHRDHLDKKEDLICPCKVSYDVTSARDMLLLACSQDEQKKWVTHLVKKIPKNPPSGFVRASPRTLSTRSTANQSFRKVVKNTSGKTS

Take `Cc1cc(=O)n(-c2cccc(CN[C@H]3CCC[C@H](Nc4ccc5[nH]ncc5c4)C3)c2)cc1F`: the result with Mus musculus [1], in the series on Mus musculus [2], with Mus musculus [3], in the series on Mus musculus [4], in the series on Mus musculus [6] and with Mus musculus [10] was Active. The outcome in the series with HaCaT [11] and with Mus musculus [12] was Active. Also, in series [5], the half-life is 1.99 h. In series [7], the bioavailability turned out to be 7.14%. In addition, the Vd in series [8] is 8.63 L/kg. For the same compound, the AUC(0-t) in [9] was 1040 ng·h/mL. Besides, the inhibition result with HaCaT [13] is “Active”. The same compound returned an IC50 in [14] of 71.2 nM.
